# From PubChem BioAssay (NCI)
#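 GI50 = concentration required for 50% inhibition of growth. TGI denotes the concentration required for complete inhibition of growth.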
# What was measured:
# Assay in all cases: growth of human tumour cells (NCI), 384-well format
# HOP-92 NSCLC = test system: HOP-92 NSCLC
# SK-MEL-2 melanoma = test system: SK-MEL-2 melanoma
# HT29 colon = test system: HT29 colon
# HL-60(TB) leukemia = test system: HL-60(TB) leukemia
# UACC-257 melanoma = test system: UACC-257 melanoma
# SNB-19 CNS = test system: SNB-19 CNS
# KM12 colon = test system: KM12 colon
# U251 glioblastoma = test system: U251 glioblastoma
# OVCAR-4 ovarian = test system: OVCAR-4 ovarian
# MCF7 breast = test system: MCF7 breast
# IGROV1 ovarian = test system: IGROV1 ovarian
# TK-10 renal = test system: TK-10 renal
# NCI/ADR-RES ovarian = test system: NCI/ADR-RES ovarian
# RPMI-8226 leukemia = test system: RPMI-8226 leukemia
# OVCAR-5 ovarian = test system: OVCAR-5 ovarian
# SNB-75 CNS = test system: SNB-75 CNS
# SR leukemia = test system: SR leukemia
# HCC-2998 colon = test system: HCC-2998 colon
# NCI-H322M lung = test system: NCI-H322M lung
# HCT-15 colon = test system: HCT-15 colon
# CCRF-CEM leukemia = test system: CCRF-CEM leukemia
# NCI-H522 lung = test system: NCI-H522 lung
# PC-3 prostate = test system: PC-3 prostate
# SK-MEL-5 melanoma = test system: SK-MEL-5 melanoma
# A549 NSCLC = test system: A549 NSCLC
# COLO 205 colon = test system: COLO 205 colon
# OVCAR-8 ovarian = test system: OVCAR-8 ovarian
# A498 renal = test system: A498 renal
# MOLT-4 leukemia = test system: MOLT-4 leukemia
# EKVX NSCLC = test system: EKVX NSCLC
# NCI-H226 lung = test system: NCI-H226 lung
# BT-549 breast = test system: BT-549 breast
# SN12C renal = test system: SN12C renal
# T-47D breast = test system: T-47D breast
# 786-0 renal = test system: 786-0 renal
# HS 578T breast = test system: HS 578T breast
# MDA-MB-231 breast = test system: MDA-MB-231 breast
# M14 melanoma = test system: M14 melanoma
# ACHN renal = test system: ACHN renal
# LOX IMVI melanoma = test system: LOX IMVI melanoma
# NCI-H460 NSCLC = test system: NCI-H460 NSCLC
# RXF 393 renal = test system: RXF 393 renal
# SK-MEL-28 melanoma = test system: SK-MEL-28 melanoma
# NCI-H23 lung = test system: NCI-H23 lung
# K-562 leukemia = test system: K-562 leukemia
# HCT-116 colon = test system: HCT-116 colon
# SF-268 CNS = test system: SF-268 CNS
structure (smiles),measurement,setting,value
NC(=O)[C@@H](CC1CC1)[C@@H](CCC(F)(F)F)C(=O)N[C@H]1N=C(c2ccccc2)c2cccc(F)c2NC1=O,GI50,HOP-92 NSCLC,15.5 µM
same,TGI,HOP-92 NSCLC,29.6 µM
same,GI50,SK-MEL-2 melanoma,19.7 µM
same,TGI,SK-MEL-2 melanoma,35.2 µM
same,GI50,HT29 colon,32.9 µM
same,TGI,HT29 colon,98 µM
same,GI50,HL-60(TB) leukemia,29.7 µM
same,TGI,HL-60(TB) leukemia,> 100 µM
same,GI50,UACC-257 melanoma,5.76 µM
same,TGI,UACC-257 melanoma,24.6 µM
same,GI50,SNB-19 CNS,14.7 µM
same,TGI,SNB-19 CNS,28.9 µM
same,GI50,KM12 colon,> 51.9 µM
same,TGI,KM12 colon,> 100 µM
same,GI50,U251 glioblastoma,17.7 µM
same,TGI,U251 glioblastoma,34 µM
same,GI50,OVCAR-4 ovarian,13.3 µM
same,TGI,OVCAR-4 ovarian,28.1 µM
same,GI50,MCF7 breast,14.6 µM
same,TGI,MCF7 breast,29.1 µM
same,GI50,IGROV1 ovarian,16.1 µM
same,TGI,IGROV1 ovarian,40.4 µM
same,GI50,TK-10 renal,16.5 µM
same,TGI,TK-10 renal,33 µM
same,GI50,NCI/ADR-RES ovarian,> 86.4 µM
same,TGI,NCI/ADR-RES ovarian,> 100 µM
same,GI50,RPMI-8226 leukemia,16.2 µM
same,TGI,RPMI-8226 leukemia,36.2 µM
same,GI50,OVCAR-5 ovarian,18.5 µM
same,TGI,OVCAR-5 ovarian,47.1 µM
same,GI50,SNB-75 CNS,10.7 µM
same,TGI,SNB-75 CNS,25.4 µM
same,GI50,SR leukemia,13.9 µM
same,TGI,SR leukemia,27.1 µM
same,GI50,HCC-2998 colon,23.8 µM
same,TGI,HCC-2998 colon,84.3 µM
same,GI50,NCI-H322M lung,12.4 µM
same,TGI,NCI-H322M lung,40.6 µM
same,GI50,HCT-15 colon,> 65.9 µM
same,TGI,HCT-15 colon,> 100 µM
same,GI50,CCRF-CEM leukemia,9.79 µM
same,TGI,CCRF-CEM leukemia,> 64.3 µM
same,GI50,NCI-H522 lung,15.2 µM
same,TGI,NCI-H522 lung,30.5 µM
same,GI50,PC-3 prostate,17.6 µM
same,TGI,PC-3 prostate,34.2 µM
same,GI50,SK-MEL-5 melanoma,9.41 µM
same,TGI,SK-MEL-5 melanoma,24.1 µM
same,GI50,A549 NSCLC,15.7 µM
same,TGI,A549 NSCLC,49.4 µM
same,GI50,COLO 205 colon,> 38.8 µM
same,TGI,COLO 205 colon,> 60.3 µM
same,GI50,OVCAR-8 ovarian,16 µM
same,TGI,OVCAR-8 ovarian,33.5 µM
same,GI50,A498 renal,15 µM
same,TGI,A498 renal,43 µM
same,GI50,MOLT-4 leukemia,7.38 µM
same,TGI,MOLT-4 leukemia,35 µM
same,GI50,EKVX NSCLC,7.61 µM
same,TGI,EKVX NSCLC,32 µM
same,GI50,NCI-H226 lung,16.5 µM
same,TGI,NCI-H226 lung,30.5 µM
same,GI50,BT-549 breast,17.8 µM
same,TGI,BT-549 breast,35.2 µM
same,GI50,SN12C renal,16.2 µM
same,TGI,SN12C renal,31.2 µM
same,GI50,T-47D breast,1.94 µM
same,TGI,T-47D breast,17.7 µM
same,GI50,786-0 renal,20.3 µM
same,TGI,786-0 renal,> 67.6 µM
same,GI50,HS 578T breast,11.3 µM
same,TGI,HS 578T breast,25.5 µM
same,GI50,MDA-MB-231 breast,14.4 µM
same,TGI,MDA-MB-231 breast,28 µM
same,GI50,M14 melanoma,18.5 µM
same,TGI,M14 melanoma,43.3 µM
same,GI50,ACHN renal,20.8 µM
same,TGI,ACHN renal,> 64.5 µM
same,GI50,LOX IMVI melanoma,11.7 µM
same,TGI,LOX IMVI melanoma,38.4 µM
same,GI50,NCI-H460 NSCLC,11.6 µM
same,TGI,NCI-H460 NSCLC,> 48.4 µM
same,GI50,RXF 393 renal,7.3 µM
same,TGI,RXF 393 renal,22.6 µM
same,GI50,SK-MEL-28 melanoma,17.8 µM
same,TGI,SK-MEL-28 melanoma,33.2 µM
same,GI50,NCI-H23 lung,9.77 µM
same,TGI,NCI-H23 lung,30 µM
same,GI50,K-562 leukemia,7.18 µM
same,TGI,K-562 leukemia,62.6 µM
same,GI50,HCT-116 colon,10.5 µM
same,TGI,HCT-116 colon,26.1 µM
same,GI50,SF-268 CNS,7.01 µM
same,TGI,SF-268 CNS,24.3 µM
